Laboratory results as given in patent US6365621B1, “Remedies or preventives for intractable epilepsy” (Pharmaceutical Co., Ltd., priority 1998, dated 2002).
Several values for one entry are separate records, joined by “and”; a condition that tells them apart may be missing. Equal values may be shown once. Read-outs that look alike come from different tables or passages of the source.

Tests used:
[1] = test system: fully amygdala kindled rats; assay: Seizures in fully amygdala kindled rats (GST stimulation); type: in vivo, rat; settings: for Change of ADD (%): afterdischarge duration before administration = 100; for Change of MSD (%): motor seizure duration before administration = 100
Experimental: [Method for preparing a kindling model] Male Wistar rats (weight: 200-250 g, Tokyo Jikken Dobutsu) were used, and pentobarbital (50 mg/kg, Dinabot) and ketamine (50 mg/kg, Sankyo Co., Ltd.) were used as anesthetic agents.
A dose-response of nefiracetam (15-180 mg/kg) with respect to a kindling seizure induced GTS stimulation intensity was evaluated in terms of the following parameters: seizure stage, and afterdischarge duration at the sitimulated amygdala and motor seizure duration.
In accordance with the method of Racine et al. (Modification of seizure activity by electrical stimulation: II motor seizure. Electroencephalography Clin. Neurophysiol. 1972. 32: 281-294), seizures were classified into the following five stages: stage 1 (chewing); stage 2 (head nodding); stage 3 (forelimb clonus); stage 4 (rearing); and stage 5 (rearing and falling).
Motor seizure duration (seconds) was represented by the total duration of stages 3 through 5. Stage 1 or Stage 2 is a seizure symptom of the limbic system, and Stage 3, 4, or 5 is regarded a motor seizure (Sato, M., Racine, R. J., McIntyre, D. C., Kindling: basic mechanisms and clinical validity, Electroencephalography Clin. Neurophysiol. 1990, 76: 459-472).
Afterdischarge duration (seconds) was recorded by use of an electrode for recording, and was represented by the seizure-discharge duration shown in a electroencephalogram, which is induced by a kindling stimulation. Nefiracetam was dissolved into a solvent (0.5% carboxymethyl cellulose) and the solution was administered orally 90 minutes before GST stimulation, wherein the amount of administered nefiracetam is classified into several stages within a range of 15-180 mg/kg.
[Method] The rats used in this Example were of the same type in terms of the source of purchase, body weight, and age (week). For each rat, in the same manner as in of Example 1, there were performed anesthetization, setting of an electrode on the amygdala, fixation of the electrode at the cranial bone, and a kindling stimulation (50 Hz, sine wave).
For non-administered rats and nefiracetam-administered rats (120 mg/kg), the effect of the administration was evaluated when GST stimulation intensity was increased by a factor of two (GST 2) or three (GST 3). The effect of 120 mg/kg of nefiracetam on kindling seizures induced by one-fold, two-fold, and three-fold GTS stimulation was evaluated in terms of the following parameters: seizure stage, motor seizure duration, and afterdischarge duration.

[2] = test system: kainate-induced amygdala seizures; type: in vivo, rat; as to Spikes from the amygdala after 24 h: key: (+): effective; (−): ineffective; as to Spikes from the amygdala after 48 h: key: (+): effective; (−): ineffective; as to Spikes from the amygdala after 72 h: key: (+): effective; (−): ineffective; as to Spikes from the amygdala just after intravenous injection: key: (+): effective; (−): ineffective
Experimental: [Method for measuring an electrophysiological effect] The following operation was performed by use of 19 Wistar male rats (Japan SLC Co.) each having a weight of 250-350 g. Each rat was anesthetized by pentobarbital and fixed in a stereotaxic apparatus. […] Subsequently, a bipolar depth electrode having a diameter of 0.2 mm were inserted into bilateral amygdala (A, +5.0; L, +−5.0; D, −3.0) and hippocampus (A, +3.0; L, +−3.2; D, +1.5). Screw electrodes were set at the left sensorimotor area (A, +1.0 (from bregam); L, +−2.5; D, 0.5 (from dura)), frontal sinus, and occipital median. The electrodes were connected to sockets, and the cannula, the electrodes, and the sockets were fixed on the cranium by use of dental cement. Seven days after operation, 1 μL of a solution of kainic acid dissolved in phosphoric acid buffer (1 mg/ml) was injected through the cannula (rate: […]) (n=12), so as to induce limbic system seizures. The electrodes were connected to an electroencephalograph, and the behavior of the rat in a cage was observed. An electroencephalogram was recorded by use of the electrode at the frontal sinus serving as an indifferent electrode and the electrode at the occipital median serving as ground. The behavior and electroencephalogram were simultaneously recorded by use of a video electroencephalogram recorder based on an electroencephalograph (SYNAFIT 1000; NEC San-ei Instruments, LTD.).
One to two hours after the injection of kainic acid, when a limbic system seizure was in status epilepticus, nefiracetam dissolved in saline (10 mg/mL) was slowly injected into a caudal vein in an amount selected from 10, 50, 100, and 200 mg/kg (n=12). The same amount of saline was injected into a vein of rats of the control group (n=7). Subsequently, behavior and electroencephalograms of the rat were continuously recorded for at least eight hours, followed by two-hour recording after 24 hours, 48 hours, and 72 hours. Changes in clinical seizure and electroencephalogram observations just after the injection of the nefiracetam solution or saline, and occurrence of seizures and electroencephalogram observations after 24, 48, and 72 hours were measured, and the results were evaluated on the basis of the comparison.

[3] = test system: male mouse; settings: peroral; cited from earlier work
[4] = 10 mg/kg i.v., EEG, individual rat
[5] = 50 mg/kg i.v., EEG, individual rat
[6] = 100 mg/kg i.v., EEG, individual rats
[7] = 200 mg/kg i.v., EEG, individual rats
[8] = 200 mg/kg i.v., individual rats

## Cc1cccc(C)c1NC(=O)CN1CCCC1=O [nefiracetam, N-(2,6-dimethylphenyl)-2-(2-oxo-1-pyrrolidinyl)acetamide]
[1]; 15 mg/kg p.o. 90 min before GST stimulation, seizure stage before administration = 100
  Change of stage (%): 80.0%
[1]; 15 mg/kg p.o.
  Change of ADD (%): 81.7%
[1]; 30 mg/kg p.o. 90 min before GST stimulation, seizure stage before administration = 100
  Change of stage (%): 100.0%
[1]; 30 mg/kg p.o.
  Change of ADD (%): 99.9%
[1]; 60 mg/kg p.o. 90 min before GST stimulation, seizure stage before administration = 100
  Change of stage (%): 80.0%
[1]; 60 mg/kg p.o.
  Change of ADD (%): 83.9%
[1]; 90 mg/kg p.o. 90 min before GST stimulation, seizure stage before administration = 100
  Change of stage (%): 76.0%
[1]; 90 mg/kg p.o.
  Change of ADD (%): 82.3%
[1]; 120 mg/kg p.o. 90 min before GST stimulation, seizure stage before administration = 100
  Change of stage (%): 13.3%
[1]; 120 mg/kg p.o.
  Change of ADD (%): 25.0%
[1]; 120 mg/kg, 3-times-GST stimulation intensity
  Effect on afterdischarge duration: the afterdischarge duration was restored
[1]; 120 mg/kg, GST intensity 1-fold, before administration = 100
  Change of stage (%): 16.7%
[1]; 120 mg/kg, GST intensity 1-fold
  Change of MSD (%): 11.1%
[1]; 120 mg/kg, GST intensity 2-fold, before administration = 100
  Change of stage (%): 14.7%
[1]; 120 mg/kg, GST intensity 2-fold
  Change of MSD (%): 15.2%
[1]; 120 mg/kg, GST intensity 3-fold, before administration = 100
  Change of stage (%): 52.0%
[1]; 120 mg/kg, GST intensity 3-fold
  Change of MSD (%): 43.8%
[1]; 120 mg/kg, one-fold GST stimulation intensity
  Effect on afterdischarge duration: significant and strong inhibition
[1]; 120 mg/kg, two-fold GST stimulation intensity
  Effect on afterdischarge duration: an effect on afterdischarge duration was reduced
[1]; 180 mg/kg p.o. 90 min before GST stimulation, seizure stage before administration = 100
  Change of stage (%): 36.0%
[1]; 180 mg/kg p.o.
  Change of ADD (%): 24.8%
[1]; 15-180 mg/kg p.o., GST stimulation
  Effect on seizure stage, motor seizure duration and afterdischarge duration: dose-dependent inhibition
[1]; regression curve by least-squares method, p.o., fully kindled rats
  ED50 (effect on seizure stage): 114 mg/kg
[2]; 10 mg/kg i.v. during status epilepticus, individual rat
  Disappearance of seizures intravenous injection: −
[2]; [4]
  Spikes from the amygdala after 24 h: +
  Spikes from the amygdala just after intravenous injection: +
[2]; 10 mg/kg i.v., individual rat
  Sedative action: −
[2]; 50 mg/kg i.v. during status epilepticus, individual rat
  Disappearance of seizures intravenous injection: −
[2]; [5]
  Spikes from the amygdala after 24 h: +
  Spikes from the amygdala just after intravenous injection: +
[2]; 50 mg/kg i.v., individual rat
  Sedative action: −
[2]; 100 mg/kg i.v.
  Duration of sedative action after injection: 30 to 60 min
[2]; 100 mg/kg i.v. during status epilepticus, individual rats
  Disappearance of seizures intravenous injection: −
[2]; [6]
  Spikes from the amygdala after 24 h: +
  Spikes from the amygdala just after intravenous injection: +
[2]; 100 mg/kg i.v., individual rats
  Sedative action: +
[2]; 200 mg/kg and 100 mg/kg i.v., approximately
  Duration of sedation from just after the injection: 60 to 90 min
[2]; 200 mg/kg i.v.
  Rats in which seizures were not suppressed (behavior and electroencephalogram): 3 out of the 8
[2]; 200 mg/kg i.v. during status epilepticus, individual rats
  Disappearance of seizures intravenous injection: + (5×) and − (3×)
[2]; [7]
  Spikes from the amygdala after 24 h: − (3×) and + (4×)
  Spikes from the amygdala after 48 h: − (3×) and + (3×)
  Spikes from the amygdala after 72 h: − (3×) and + (3×)
  Spikes from the amygdala just after intravenous injection: − (4×) and + (4×)
[2]; 200 mg/kg i.v., among the 5 rats whose seizures disappeared
  Rats in which spikes corresponding to the amygdala disappeared from electroencephalogram: 4 out of the 5
[2]; [8]
  Disappearance period of seizures after intravenous injection: 5 min and 35 min
  Sedative action: +
[2]; 200 mg/kg i.v., rat N5
  Death after intravenous injection (time): 25 min
[2]; 200 mg/kg i.v., seizures later reappeared
  Rats in which seizures disappeared after injection: 5 out of 8
[2]; 10, 50, or 100 mg/kg i.v. during status epilepticus
  Changes in paroxysmal behavior or electroencephalograms: no apparent changes
[3]
  acute toxicity: 2,005 mg/kg
